Experimental data taken from PubChem BioAssay (NCI).
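96-well plates; 48 h exposure; 5 concentrations. Endpoints by linear interpolation between flanking doses. Not reached: highest tested concentration assigned. Here, GI50 denotes the concentration required for 50% inhibition of growth. The concentration for full growth arrest is given as TGI.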

Tests used:
Assay in all cases: NCI anticancer screen, dose series, 48 h
A498 renal = system: A498 renal
UACC-62 melanoma = system: UACC-62 melanoma
NCI/ADR-RES ovarian = system: NCI/ADR-RES ovarian
OVCAR-4 ovarian = system: OVCAR-4 ovarian
SNB-19 CNS = system: SNB-19 CNS
EKVX NSCLC = system: EKVX NSCLC
SW-620 colon = system: SW-620 colon
MCF7 breast = system: MCF7 breast

| SMILES | TGI (A498 renal) | TGI (UACC-62 melanoma) | TGI (NCI/ADR-RES ovarian) | TGI (OVCAR-4 ovarian) | TGI (SNB-19 CNS) | TGI (EKVX NSCLC) | TGI (SW-620 colon) | TGI (MCF7 breast) | GI50 (A498 renal) | GI50 (UACC-62 melanoma) | GI50 (NCI/ADR-RES ovarian) | GI50 (OVCAR-4 ovarian) | GI50 (SNB-19 CNS) | GI50 (EKVX NSCLC) | GI50 (SW-620 colon) | GI50 (MCF7 breast) |
| --- | --- | --- | --- | --- | --- | --- | --- | --- | --- | --- | --- | --- | --- | --- | --- | --- |
| O=C1C2CCN(CC2)C1(CO)CO | > 79.7 µM | 42.1 µM | 60 µM | 43 µM | > 100 µM | 99.4 µM | 36.3 µM | 66.4 µM |  |  |  |  |  |  |  |  |
| O=C(N/N=C/c1ccc(O)cc1O)c1cccc(Nc2ccnc(C(F)(F)F)c2)c1 | > 51 µM | 7.37 µM | > 90.1 µM | 51.5 µM | > 72.6 µM | 37.3 µM | 21.4 µM | 15.5 µM | 12.8 µM | 0.33 µM | 9.05 µM | 0.573 µM | 1.01 µM | 1.32 µM | 4.07 µM | 2.2 µM |
| N#Cc1c(N)nc(N2CCOCC2)c(C#N)c1-c1ccccn1 | > 100 µM | 0.482 µM | > 100 µM | > 100 µM | > 100 µM | > 100 µM | > 100 µM | > 100 µM | > 100 µM | 0.0342 µM | > 100 µM | > 100 µM | > 100 µM | > 100 µM | > 100 µM | > 100 µM |
| [N-]=[N+]=NCCCn1c2c(c3ccc([N+](=O)[O-])cc3c1=O)C(=O)c1cc(F)ccc1-2 | 72.2 µM | 3.55 µM | > 49 µM | > 95.7 µM | > 100 µM | > 100 µM | > 100 µM | > 55.1 µM | 11.8 µM | 0.523 µM | 1.46 µM | 16.2 µM | 1.05 µM | 61.2 µM | 1.76 µM | 0.311 µM |
| Fc1cccc(-n2ccc(-c3ccccc3)nc2=S)c1 | 33.3 µM | > 100 µM | 41.4 µM | > 100 µM | > 59.7 µM | 33.4 µM | > 100 µM | 41.2 µM | 17.2 µM | > 54.6 µM | 18.3 µM | 98.6 µM | 12.9 µM | 17.7 µM | > 100 µM | 18.5 µM |
| CC1(C)NCCC[C@]2(C)[C@H]3CC[C@@H]4[C@H]5[C@H](C(=O)/C=C/c6ccccn6)CC[C@]5(CO)CC[C@@]4(C)[C@]3(C)CC[C@@H]12 | 23.5 µM | 17.2 µM | 13.9 µM | 13 µM | 19.8 µM | 23.4 µM | 3.49 µM | 5.8 µM | 8.7 µM | 4 µM | 3.43 µM | 3.51 µM | 3.92 µM | 5.51 µM | 1.82 µM | 1.85 µM |
| Cc1cc(-c2ccccn2)cc(C)c1/C=C/c1cncc(-c2nn[nH]n2)c1 | > 25 µM | > 25 µM | > 25 µM | > 25 µM | > 25 µM | > 25 µM | > 25 µM | > 25 µM | > 25 µM | > 25 µM | > 25 µM | > 25 µM | > 25 µM | > 25 µM | > 25 µM | > 25 µM |
| NS(=O)(=O)CC1CC[CH-]CC1.[Cl-].[Cl-].[Cl-].[Cl-].[Cl-].[Sb+5].c1ccncc1 | > 100 µM | > 100 µM | > 100 µM | > 100 µM | > 100 µM | > 100 µM | > 100 µM | > 100 µM | > 100 µM | > 100 µM | > 100 µM | > 100 µM | > 100 µM | > 100 µM | > 100 µM | > 100 µM |
| Oc1ccc(C2c3ccccc3Oc3ccccc32)c2cccnc12 | 64.4 µM | 8.07 µM | > 100 µM | > 100 µM | > 100 µM | > 100 µM | > 100 µM | > 100 µM | 1.74 µM | 1.88 µM | 1.59 µM | 2.08 µM | 1.85 µM | 2 µM | 1.17 µM | 1.74 µM |
| Clc1ccccc1CNc1c2ccccc2nc2ccccc12 | 6.94 µM | 9.18 µM | 9.52 µM | 8.11 µM | 8.96 µM | 9.85 µM | 6.56 µM | 5.63 µM | 1.75 µM | 2.3 µM | 2.04 µM | 2.13 µM | 2.28 µM | 2.77 µM | 1.67 µM | 1.27 µM |
| CC(CN(C)C)Oc1ccccc1NC1=C(Cl)C(=O)C(Nc2ccccc2OC(C)CN(C)C)=C(Cl)C1=O (stereo not drawn) | 2.86 µM | 3.05 µM | 8.53 µM | 0.279 µM | 3.28 µM | 1.81 µM | 0.357 µM | 0.41 µM | 1.51 µM | 1.55 µM | 1.97 µM | 0.146 µM | 1.71 µM | 0.685 µM | 0.175 µM | 0.169 µM |
